Assay results as given in patent US20190376110A1, “METHOD TO DETECT BACTERIAL ACTIVITY AND PATHOGENICITY WITH BIODYNAMIC SENTINELS” (Purdue Research Foundation, priority 2018, published 2019).

How the values were obtained:
[1] = tested on: E. coli pellet; experiment: Biodynamic imaging / fluctuation spectroscopy of E. coli bacterial pellet; assay type: cell-based
Protocol: (§1) Various bacterial specimens can be prepared in a pellet form. A pellet is a condensed form of bacteria which allows them to be carried and handled more efficiently. Bacteria are grown in LB medium for 4 to 12 hours. When culturing is done, the bacteria density in medium is approximately 10^8 #/mL. To make the pellet, 25 mL of bacteria medium is stored in a centrifuge tube. The medium is centrifuged by 10,000 rpm for 10 minutes (Avanti J-20 XPI). During centrifugation, a pellet is formed at the bottom of a centrifuge tube.
(§2) There are two different sample plate preparations. A monoplex plate is a plate preparation format to test a rapid response of bacteria in single wells. The time resolution of the spectrum measurement is 2 minutes. A multiplex plate is a mode for measuring slow behavior using a measuring period is 30 minutes. For the multiplex, 16 wells are measured in parallel. A plate is firmly fixed on a translational stage controlled at 37 degrees Celsius or other temperature depending on the cell type and the bacterium. The plate is covered with a semi-permeable membrane which prevents the medium from drying out while permitting air molecule exchange.
Backscattered light from a specimen forms a speckle field consisting of many speckles with sizes determined by the point-spread-function of the imaging optics, and the speckle is delivered by a 4-f system (L1 and L2, f=15 cm). After the 4-f system, a lens (L3, f=5 cm) conducts Fourier transformation of the speckle and the Fourier image is formed at a Fourier plane on a Fourier-domain pixel array (such as a CCD).
To gain a more specific understanding of the effect of the nutrient shock, […] is used in a mode called […]. This breaks down the effects of a perturbation into a range of frequencies that are altered by the perturbation. Fluctuation spectroscopy is used routinely in biodynamic imaging applications for drug assays on cancer tissue. In the context of the bacterial pellets, the perturbation similarly can cause spectral changes whose specific frequencies relate to specific speeds of biological processes involved.

[2] = tested on: Listeria pellet; details: short-time response within 30 minutes of dose
Protocol: as §1, §2
(§3) Backscattered light from a specimen forms a speckle field consisting of many speckles with sizes determined by the point-spread-function of the imaging optics, and the speckle is delivered by a 4-f system (L1 and L2, f=15 cm). […]

[3] = tested on: Salmonella pellet; experiment: Biodynamic imaging / fluctuation spectroscopy of Salmonella bacterial pellet; assay type: cell-based; details: short-time response within 30 minutes of dose
Protocol: as §1, §2, §3

[4] = tested on: Listeria monocytogenes infection of DLD-1 sentinel; experiment: Tissue sentinel antibiotic assay, DLD-1 spheroids infected by Listeria; assay type: cell-based
Protocol: As one example of an infection assay, a DLD-1 colon cancer cell line is prepared as a tissue fragment sentinel. DLD-1 cell lines are cultured for 24 hours and form a spheroid shape after incubation. Spheroids are immobilized within two hours by poly-D-lysine after placing spheroids on a bottom of plate.
To obtain infection spectra, bacteria in a pellet form can be re-suspended by diluting a pellet with various media (5% NaCl, growth medium, PBS etc.). The diluting process produces a uniform concentration of bacteria, and the bacterial concentration can be controlled by controlling volumes of media.
as §2
One of the most important applications of the tissue sentinels is to serve as a dynamic substrate for the study of antibiotic sensitivity and resistance. […]

CCO [ethanol]
response of highest frequency ([1]; 70% ethanol): relatively unaffected

[Na+].[OH-] [NaOH]
spectrogram response of E. coli pellet to chemical agent ([1]; FIG. 10): broad inhibition of activity
low frequency response after adding chemical agents ([1]; FIG. 10 legend): highly suppressed

O=C(O)c1cn(C2CC2)c2cc(N3CCNCC3)c(F)cc2c1=O [Cipro, Ciprofloxacin]
response of highest frequencies to Cipro [2]: not affected
response of highest frequencies to Cipro ([1]; short-time response within 30 minutes of dose): not affected
response of highest frequencies to Cipro [3]: not affected

CC1(C)S[C@@H]2[C@H](NC(=O)Cc3ccccc3)C(=O)N2[C@H]1C(=O)O [penicillin, penicillin G]
time after antibiotic at which weak infection signal emerges ([4]; L. mono, penicillin alone): about 8 hours
inhibition of L. mono strain by antibiotic ([4]; penicillin alone without streptomycin, FIG. 22): not completely inhibited
